T/C data for 20 compounds are collected here from PubChem BioAssay AID248 (DTP/NCI, 2004).

The subject of this experiment is L1210 leukemia ip in BDF1 mice, survival T/C. As to the kind of experiment: NCI In Vivo Anticancer Drug Screen. Data for tumor model L1210 Leukemia (intraperitoneal) in B6D2F1 (BDF1) mice. The following applies: endpoint: mean survival time, higher = longer survival. Summed up:
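Antitumor effect is assessed in tumor-bearing animals. Survival in the compound arm is compared with a vehicle-dosed control arm and expressed as their quotient.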

Setting [1] is: dose: 100.0 mg/kg/injection, schedule: Q04DX003 (ip), vehicle: Klucel (hydroxypropylcellulose) (HPC).
Where [2] appears, read: dose: 200.0 mg/kg/injection, schedule: Q04DX003 (ip), vehicle: Klucel (hydroxypropylcellulose) (HPC).
Setting [3] is: dose: 400.0 mg/kg/injection, schedule: Q04DX003 (ip), vehicle: Klucel (hydroxypropylcellulose) (HPC).
[4] abbreviates: dose: 100.0 mg/kg/injection, schedule: Q01DX001 (ip), vehicle: carboxymethylcellulose (CMC).
[5] abbreviates: dose: 200.0 mg/kg/injection, schedule: Q01DX001 (ip), vehicle: carboxymethylcellulose (CMC).
[6] abbreviates: dose: 400.0 mg/kg/injection, schedule: Q01DX001 (ip), vehicle: carboxymethylcellulose (CMC).
Where [7] appears, read: dose: 100.0 mg/kg/injection, schedule: Q04DX003 (ip), vehicle: saline.
[8] abbreviates: dose: 200.0 mg/kg/injection, schedule: Q04DX003 (ip), vehicle: saline.
Setting [9] is: dose: 400.0 mg/kg/injection, schedule: Q04DX003 (ip), vehicle: saline.
Where [10] appears, read: dose: 100.0 mg/kg/injection, schedule: Q01DX009 (ip), vehicle: Klucel (hydroxypropylcellulose) (HPC).
Setting [11] is: dose: 200.0 mg/kg/injection, schedule: Q01DX009 (ip), vehicle: Klucel (hydroxypropylcellulose) (HPC).
The mark [12] stands for this setting: dose: 400.0 mg/kg/injection, schedule: Q01DX009 (ip), vehicle: Klucel (hydroxypropylcellulose) (HPC).

Structures are written as SMILES. Toxic doses and inconclusive results are not listed.

With `FC(F)(F)c1ccc2c(c1)N(CCCN1CCN(CC[n+]3ccccc3)CC1)c1ccccc1S2`, the T/C is 95 % of control (dose: 1.56 mg/kg/injection, schedule: Q01DX009 (ip), vehicle: saline); 95 % of control (dose: 3.12 mg/kg/injection, schedule: Q01DX009 (ip), vehicle: saline); 110 % of control (dose: 6.25 mg/kg/injection, schedule: Q01DX009 (ip), vehicle: saline); 120 % of control (dose: 9.2 mg/kg/injection, schedule: Q01DX009 (ip), vehicle: saline); 101 % of control (dose: 12.5 mg/kg/injection, schedule: Q04DX003 (ip), vehicle: saline); 109 % of control (dose: 14.0 mg/kg/injection, schedule: Q01DX009 (ip), vehicle: saline). Besides, under “dose: 25.0 mg/kg/injection, schedule: Q04DX003 (ip), vehicle: saline”, the T/C was 97 % of control.
As to `Cc1cc(Br)ccc1OCC(=O)O`, the T/C was 96 % of control under setting [1], 93 % of control under setting [2] and 98 % of control under setting [3].
For `CCCCCCCCCCCCCCC[n+]1ccc(C#N)cc1`, the T/C by setting is: (dose: 5.0 mg/kg/injection, schedule: Q01DX009 (ip), vehicle: acetone) 101 % of control; (dose: 10.0 mg/kg/injection, schedule: Q01DX001 (ip), vehicle: saline) 93 % of control; (dose: 10.0 mg/kg/injection, schedule: Q01DX009 (ip), vehicle: acetone) 100 % of control; (dose: 10.0 mg/kg/injection, schedule: Q04DX003 (ip), vehicle: saline) 101 % of control; (dose: 20.0 mg/kg/injection, schedule: Q01DX001 (ip), vehicle: saline) 93 % of control; (dose: 20.0 mg/kg/injection, schedule: Q04DX003 (ip), vehicle: saline) 94 % of control. Besides, the T/C runs as follows: (dose: 40.0 mg/kg/injection, schedule: Q01DX001 (ip), vehicle: saline) 98 % of control; (dose: 40.0 mg/kg/injection, schedule: Q04DX003 (ip), vehicle: saline) 92 % of control.
Turning to `COc1ccc2c(c1)CC=CO2`, the T/C by setting is: under setting [4], 107 % of control; under setting [5], 94 % of control; under setting [6], 100 % of control.
Consider `COc1cc(C=Nc2cc(Br)c(OC)c(Br)c2)ccc1N(CCCl)CCCl`, for which the T/C by setting is: (dose: 19.0 mg/kg/injection, schedule: Q01DX001 (ip), vehicle: carboxymethylcellulose (CMC)) 118 % of control; (dose: 29.0 mg/kg/injection, schedule: Q01DX001 (ip), vehicle: carboxymethylcellulose (CMC)) 118 % of control; (dose: 150.0 mg/kg/injection, schedule: Q01DX001 (ip), vehicle: carboxymethylcellulose (CMC)) 150 % of control; under setting [5], 104 % of control.
Consider `CC1=NCCO1`, for which the T/C was 102 % of control under setting [7], 105 % of control under setting [8] and 105 % of control under setting [9].
Regarding `FC(F)(F)S.[Ag]`, the T/C (dose: 75.0 mg/kg/injection, schedule: Q01DX001 (ip), vehicle: saline) is 95 % of control and the T/C (dose: 150.0 mg/kg/injection, schedule: Q01DX001 (ip), vehicle: saline) was 95 % of control.
As to `O=NN(CCCl)C(=O)N1CCN(C(=O)N(CCCl)N=O)CC1`, the T/C runs as follows: (dose: 12.5 mg/kg/injection, schedule: Q01DX001 (ip), vehicle: carboxymethylcellulose (CMC)) 112 % of control; (dose: 25.0 mg/kg/injection, schedule: Q01DX001 (ip), vehicle: carboxymethylcellulose (CMC)) 116 % of control; under setting [5], 95 % of control; (dose: 300.0 mg/kg/injection, schedule: Q01DX001 (ip), vehicle: carboxymethylcellulose (CMC)) 90 % of control; under setting [6], 87 % of control.
In the case of `CCCCCCCCCCCCCCOc1ccc(C(=O)CC(=O)OC)cc1`, the T/C under setting [1] is 90 % of control, the T/C under setting [2] was 98 % of control and the T/C under setting [3] was 90 % of control.
On to `O=c1cc(CO)[nH]nc1CO`, for which the T/C (dose: 100.0 mg/kg/injection, schedule: Q01DX009 (ip), vehicle: saline) is 97 % of control; the T/C under setting [7] is 101 % of control; the T/C (dose: 200.0 mg/kg/injection, schedule: Q01DX009 (ip), vehicle: saline) is 97 % of control; the T/C under setting [8] is 106 % of control; the T/C (dose: 400.0 mg/kg/injection, schedule: Q01DX009 (ip), vehicle: saline) is 97 % of control; the T/C under setting [9] was 103 % of control.
Turning to `COc1ccc2c(c1)CC(CN1CCC3(CC1)C(=O)N(C)CN3c1ccccc1)O2` (stereo unspecified), the T/C is 101 % of control (dose: 75.0 mg/kg/injection, schedule: Q04DX003 (ip), vehicle: Klucel (hydroxypropylcellulose) (HPC)); 107 % of control (dose: 150.0 mg/kg/injection, schedule: Q04DX003 (ip), vehicle: Klucel (hydroxypropylcellulose) (HPC)); 95 % of control (dose: 300.0 mg/kg/injection, schedule: Q04DX003 (ip), vehicle: Klucel (hydroxypropylcellulose) (HPC)).
As to `Cc1cc(O)c(C)c(C)c1N=Nc1ccccc1`, the T/C by setting is: (dose: 100.0 mg/kg/injection, schedule: Q01DX009 (ip), vehicle: saline with Tween-80) 101 % of control; (dose: 100.0 mg/kg/injection, schedule: Q04DX002 (ip), vehicle: saline with Tween-80) 108 % of control; (dose: 200.0 mg/kg/injection, schedule: Q01DX009 (ip), vehicle: saline with Tween-80) 89 % of control; (dose: 200.0 mg/kg/injection, schedule: Q04DX002 (ip), vehicle: saline with Tween-80) 90 % of control; (dose: 400.0 mg/kg/injection, schedule: Q01DX009 (ip), vehicle: saline with Tween-80) 95 % of control; (dose: 400.0 mg/kg/injection, schedule: Q04DX002 (ip), vehicle: saline with Tween-80) 93 % of control.
As to `CCCCNc1ncnc2c1nnn2C1OC(CO)C(O)C1O` (stereo unspecified), the T/C by setting is: (dose: 12.5 mg/kg/injection, schedule: Q04DX002 (ip), vehicle: Klucel (hydroxypropylcellulose) (HPC)) 100 % of control; (dose: 25.0 mg/kg/injection, schedule: Q04DX002 (ip), vehicle: Klucel (hydroxypropylcellulose) (HPC)) 94 % of control; (dose: 50.0 mg/kg/injection, schedule: Q04DX002 (ip), vehicle: Klucel (hydroxypropylcellulose) (HPC)) 97 % of control.
Take `COn1c(CC(=O)C(=O)O)cccc1=O`: the T/C was 102 % of control under setting [7], 97 % of control under setting [8] and 94 % of control under setting [9].
For `CSc1ccc(NC(=O)COc2ccccc2)cc1`, the T/C under setting [10] was 102 % of control, the T/C under setting [11] is 98 % of control and the T/C under setting [12] was 98 % of control.
With `CC1=NN(c2ccccc2)C(=O)C1N=Nc1ccc(S(=O)(=O)Nc2occ(C)c2C)cc1` (stereo unspecified), the T/C is, setting by setting: under setting [4], 90 % of control; under setting [5], 90 % of control; under setting [6], 93 % of control.
On to `O=C1c2cc([N+](=O)[O-])ccc2-c2cc(Cl)ccc21`, for which the T/C is 97 % of control (dose: 100.0 mg/kg/injection, schedule: Q04DX003 (ip), vehicle: saline with Tween-80); 97 % of control (dose: 200.0 mg/kg/injection, schedule: Q04DX003 (ip), vehicle: saline with Tween-80); 97 % of control (dose: 400.0 mg/kg/injection, schedule: Q04DX003 (ip), vehicle: saline with Tween-80).
On to `O=C(Nc1ccc(Cl)c(Cl)c1)OCCN1CCOCC1`, for which the T/C reads like this: under setting [10], 92 % of control; under setting [11], 94 % of control; under setting [12], 92 % of control.
For `Cln1nnc2ccccc21`, the T/C is 91 % of control (dose: 100.0 mg/kg/injection, schedule: Q04DX002 (ip), vehicle: other) and 106 % of control (dose: 200.0 mg/kg/injection, schedule: Q04DX002 (ip), vehicle: other).
For `C=C1CC[N+]2(CC(=O)c3ccc(Br)cc3)CCCC12` (stereo unspecified), the T/C is, setting by setting: (dose: 12.5 mg/kg/injection, schedule: Q01DX001 (ip), vehicle: saline) 92 % of control; (dose: 25.0 mg/kg/injection, schedule: Q01DX001 (ip), vehicle: saline) 92 % of control; (dose: 50.0 mg/kg/injection, schedule: Q01DX001 (ip), vehicle: saline) 101 % of control.
